Laboratory results published in PMC10029208, “Isolation and functional verification of an aspartate aminotransferase gene from Neoporphyra haitanensis” (BMC Plant Biology, 2023).
Like-named read-outs stand apart in the source and are kept apart here.

Experiments:
[1] = system: T1, NhAAT; assay: coupled malate dehydrogenase assay, NADH decrease at […] nm, double reciprocal plot; assay type: biochemical, Neoporphyra haitanensis; details: reverse reaction; co-substrate 20 mM α-ketoglutarate; 50 µM PLP; 0.1 M sodium phosphate; optimal conditions pH 7.5, 45 °C; L-aspartic acid 0-100 mM
T1 construct: gene AAT; E. coli BL21 pLysS; homodimer predicted; catalytic Lys267; primers imply N-terminus MTTTAMAP and C-terminus ETVVKQE

[2] = system: T2, NhAAT; details: forward reaction; co-substrate 20 mM oxaloacetic acid; 50 µM PLP; 0.1 M sodium phosphate; optimal conditions pH 7.5, 45 °C; L-glutamic acid 0-100 mM
T2 construct: gene AAT

Row | SMILES | Km [1] | Km [2]
1 | N[C@@H](CC(=O)O)C(=O)O [L-aspartic acid] | 6.16 mM | 
2 | N[C@@H](CCC(=O)O)C(=O)O [L-glutamic acid] |  | 5.67 mM
